In brackets after ≈: the same amount, converted by molar mass. Each block holds one compound with its values, some of them ahead of it.
Legend:
[1] = test system: Staphylococcus aureus cultures; test: Agar dilution susceptibility test, phenylthioacetyl cephalosporins vs methicillin resistant S. aureus (Example 9); type: cell-based; settings: for MIC: Staphylococcus aureus, read-out: MIC; for effectiveness in in vitro tests vs methicillin, cephalothin and cephaloridine: various cultures of methicillin-resistant Staphylococcus aureus
From the text: This example compares the antibiotic activities of three known compounds, methicillin, cephalothin, and cephaloridine, with three compounds from the above examples, in terms of minimum inhibitory concentration (MIC) values in microgram/milliliter units against various isolates of Staphylococcus aureus cultures. The culture numbers and the procedures used to obtain the reported data are disclosed by W. E. Wick and D. A. Preston in their article "Heterogeneous Methicillin-Resistant Staphylococcus Aureus" which appeared in Progress in Antimicrobial And Anticancer Chemotherapy, Proceedings of the 6th International Congress of Chemotherapy, Volume, 1, U. of Tokyo Press, Tokyo, (1970). In these agardilution susceptibility tests, the inocula were diluted to 10^3 bacteria per spot. Cultures 3055 (benzylpenicillin sensitive) and H232 (benzylpenicillin-resistant) are controls. The remaining cultures are methicillin-resistant, and, except for 3136, are clinical isolates. Culture 3136 is a 4th transfer laboratory selected mutant.

[2] = test system: Staphylococcus aureus cultures; test: Broth dilution MIC in trypticase soy broth, low and high NaCl (Example 10); type: cell-based; settings: Staphylococcus aureus, TSB, read-out: MIC
Procedure: This example compares the antibiotic activities of methicillin, cephalothin and cephaloridine with the compounds of Examples 1, 2 and 3, in broth dilution tests. The MIC values, in μg/ml., are against the same Staphylococcus aureus cultures described in Example 9, except that in this example the cultures were grown in trypticase soy broth (TSB). Growing the cultures in two broth cultures, one having a low (0.5 percent) sodium chloride content and one having a high (5.0 percent) sodium chloride content is said to assist in identifying the methicillin-resistant cultures from those which are not methicillin-resistant. […] See Chabbert, Y. A., 1967 Postgrad. Med. J., 43 (suppl); 40-46. One expects that similar changes in MIC values for this type of culture to other β-lactam antibiotics, e.g., various penicillins and cephalosporins, to have similar implications. […] That is, methicillin-resistant S.aureus cultures are susceptible to the cephalosporin antibiotics used in this invention.

[3] = culture 3055 (control, benzylpenicillin sensitive), table part marked b
[4] = culture 3055 (control, benzylpenicillin sensitive), table part marked c
[5] = culture 3130, table part marked b
[6] = culture 3130, table part marked c
[7] = culture 3131, table part marked b
[8] = culture 3131, table part marked c
[9] = culture 3132, table part marked b
[10] = culture 3132, table part marked c
[11] = culture 3133, table part marked b
[12] = culture 3133, table part marked c
[13] = culture 3134, table part marked b
[14] = culture 3134, table part marked c
[15] = culture 3135, table part marked b
[16] = culture 3135, table part marked c
[17] = culture 3136, table part marked b
[18] = culture 3136, table part marked c
[19] = culture 3137, table part marked b
[20] = culture 3137, table part marked c
[21] = culture 3138, table part marked b
[22] = culture 3138, table part marked c
[23] = culture 3139, table part marked b
[24] = culture 3139, table part marked c
[25] = culture (Seattle) 966, table part marked b
[26] = culture (Seattle) 966, table part marked c
[27] = culture H232 (control, benzylpenicillin-resistant), table part marked b
[28] = culture H232 (control, benzylpenicillin-resistant), table part marked c
[29] = culture Kavarmark 1138501, table part marked b
[30] = culture Kavarmark 1138501, table part marked c
[31] = culture S61, table part marked b
[32] = culture S61, table part marked c
[33] = culture 3055 (control), table part marked b
[34] = culture 3055 (control), table part marked c
[35] = culture 3132 (first column so headed), table part marked b
[36] = culture 3132 (first column so headed), table part marked c
[37] = culture 3132 (second column so headed), table part marked b
[38] = culture 3132 (second column so headed), table part marked c
[39] = culture H232 (control), table part marked b
[40] = culture H232 (control), table part marked c
[41] = culture Kavarnick 1138501, table part marked b
[42] = culture Kavarnick 1138501, table part marked c

MIC [1, 3]: < 0.06 µg/mL
MIC [1, 4]: < 0.06 µg/mL
MIC [1, 5]: 0.5 µg/mL (≈ 1.02 µM)
MIC [1, 6]: 2 µg/mL (≈ 4.07 µM)
MIC [1, 7]: 0.5 µg/mL (≈ 1.02 µM)
MIC [1, 8]: 1 µg/mL (≈ 2.04 µM)
MIC [1, 9]: 0.5 µg/mL (≈ 1.02 µM)
MIC [1, 10]: 0.5 µg/mL (≈ 1.02 µM)
MIC [1, 11]: 1 µg/mL (≈ 2.04 µM)
MIC [1, 12]: 2 µg/mL (≈ 4.07 µM)
MIC [1, 13]: 1 µg/mL (≈ 2.04 µM)
MIC [1, 14]: 2 µg/mL (≈ 4.07 µM)
MIC [1, 15]: 0.5 µg/mL (≈ 1.02 µM)
MIC [1, 16]: 1 µg/mL (≈ 2.04 µM)
MIC [1, 17]: 0.5 µg/mL (≈ 1.02 µM)
MIC [1, 18]: 1 µg/mL (≈ 2.04 µM)
MIC [1, 19]: 2 µg/mL (≈ 4.07 µM)
MIC [1, 20]: 4 µg/mL (≈ 8.14 µM)
MIC [1, 21]: 1 µg/mL (≈ 2.04 µM)
MIC [1, 22]: 1 µg/mL (≈ 2.04 µM)
MIC [1, 23]: 1 µg/mL (≈ 2.04 µM)
MIC [1, 24]: 0.5 µg/mL (≈ 1.02 µM)
MIC [1, 25]: 0.5 µg/mL (≈ 1.02 µM)
MIC [1, 26]: 0.25 µg/mL (≈ 0.509 µM)
MIC [1, 27]: < 0.06 µg/mL
MIC [1, 28]: < 0.06 µg/mL
MIC [1, 29]: 0.5 µg/mL (≈ 1.02 µM)
MIC [1, 30]: 1 µg/mL (≈ 2.04 µM)
MIC [1, 31]: 0.5 µg/mL (≈ 1.02 µM)
MIC [1, 32]: 1 µg/mL (≈ 2.04 µM)
MIC [2, 33]: 0.06 µg/mL (≈ 0.122 µM)
MIC [2, 34]: 0.06 µg/mL (≈ 0.122 µM)
MIC [2, 5]: 1 µg/mL (≈ 2.04 µM)
MIC [2, 6]: 8 µg/mL (≈ 16.3 µM)
MIC [2, 7]: < 0.5 µg/mL
MIC [2, 8]: 2 µg/mL (≈ 4.07 µM)
MIC [2, 35]: < 0.5 µg/mL
MIC [2, 36]: 2 µg/mL (≈ 4.07 µM)
MIC [2, 37]: < 0.5 µg/mL
MIC [2, 38]: 2 µg/mL (≈ 4.07 µM)
MIC [2, 13]: 2 µg/mL (≈ 4.07 µM)
MIC [2, 14]: 4 µg/mL (≈ 8.14 µM)
MIC [2, 15]: < 0.5 µg/mL
MIC [2, 16]: 2 µg/mL (≈ 4.07 µM)
MIC [2, 17]: 0.25 µg/mL (≈ 0.509 µM)
MIC [2, 18]: 4 µg/mL (≈ 8.14 µM)
MIC [2, 19]: 2 µg/mL (≈ 4.07 µM)
MIC [2, 20]: 4 µg/mL (≈ 8.14 µM)
MIC [2, 21]: 2 µg/mL (≈ 4.07 µM)
MIC [2, 22]: 2 µg/mL (≈ 4.07 µM)
MIC [2, 23]: 0.5 µg/mL (≈ 1.02 µM)
MIC [2, 24]: < 0.5 µg/mL
MIC [2, 25]: 0.5 µg/mL (≈ 1.02 µM)
MIC [2, 26]: 2 µg/mL (≈ 4.07 µM)
MIC [2, 39]: 0.12 µg/mL (≈ 0.244 µM)
MIC [2, 40]: 0.25 µg/mL (≈ 0.509 µM)
MIC [2, 41]: 0.5 µg/mL (≈ 1.02 µM)
MIC [2, 42]: 2 µg/mL (≈ 4.07 µM)
MIC [2, 31]: 0.5 µg/mL (≈ 1.02 µM)
MIC [2, 32]: 2 µg/mL (≈ 4.07 µM)
MIC ([2]; culture S, table part marked b): 0.5 µg/mL (≈ 1.02 µM)
MIC ([2]; culture S, table part marked c): 2 µg/mL (≈ 4.07 µM)
SMILES: CC(=O)OCC1=C(C(=O)O)N2C(=O)C(NC(=O)CSc3cc(Cl)ccc3Cl)C2SC1 (stereo not drawn) [Example 2, 7-(2,5-Dichlorophenylthioacetamido)-cephalosporanic acid]
effectiveness in in vitro tests vs methicillin, cephalothin and cephaloridine [1]: substantially more effective than methicillin, cephalothin, and cephaloridine

MIC [1, 3]: < 0.06 µg/mL
MIC [1, 4]: < 0.06 µg/mL
MIC [1, 5]: 0.5 µg/mL (≈ 1.02 µM)
MIC [1, 6]: 1 µg/mL (≈ 2.04 µM)
MIC [1, 7]: 0.5 µg/mL (≈ 1.02 µM)
MIC [1, 8]: 2 µg/mL (≈ 4.07 µM)
MIC [1, 9]: 0.25 µg/mL (≈ 0.509 µM)
MIC [1, 10]: 0.5 µg/mL (≈ 1.02 µM)
MIC [1, 11]: 1 µg/mL (≈ 2.04 µM)
MIC [1, 12]: 1 µg/mL (≈ 2.04 µM)
MIC [1, 13]: 0.5 µg/mL (≈ 1.02 µM)
MIC [1, 14]: 1 µg/mL (≈ 2.04 µM)
MIC [1, 15]: 0.5 µg/mL (≈ 1.02 µM)
MIC [1, 16]: 1 µg/mL (≈ 2.04 µM)
MIC [1, 17]: 0.25 µg/mL (≈ 0.509 µM)
MIC [1, 18]: 2 µg/mL (≈ 4.07 µM)
MIC [1, 19]: 2 µg/mL (≈ 4.07 µM)
MIC [1, 20]: 4 µg/mL (≈ 8.14 µM)
MIC [1, 21]: 2 µg/mL (≈ 4.07 µM)
MIC [1, 22]: 1 µg/mL (≈ 2.04 µM)
MIC [1, 23]: 0.5 µg/mL (≈ 1.02 µM)
MIC [1, 24]: 1 µg/mL (≈ 2.04 µM)
MIC [1, 25]: 0.25 µg/mL (≈ 0.509 µM)
MIC [1, 26]: 0.5 µg/mL (≈ 1.02 µM)
MIC [1, 27]: < 0.06 µg/mL
MIC [1, 28]: < 0.06 µg/mL
MIC [1, 29]: 0.5 µg/mL (≈ 1.02 µM)
MIC [1, 30]: 2 µg/mL (≈ 4.07 µM)
MIC [1, 31]: 0.5 µg/mL (≈ 1.02 µM)
MIC [1, 32]: 2 µg/mL (≈ 4.07 µM)
MIC [2, 33]: 0.06 µg/mL (≈ 0.122 µM)
MIC [2, 34]: 0.06 µg/mL (≈ 0.122 µM)
MIC [2, 5]: < 0.5 µg/mL
MIC [2, 6]: 2 µg/mL (≈ 4.07 µM)
MIC [2, 7]: < 0.5 µg/mL
MIC [2, 8]: 1 µg/mL (≈ 2.04 µM)
MIC [2, 35]: < 0.5 µg/mL
MIC [2, 36]: 1 µg/mL (≈ 2.04 µM)
MIC [2, 37]: < 0.5 µg/mL
MIC [2, 38]: 2 µg/mL (≈ 4.07 µM)
MIC [2, 13]: 1 µg/mL (≈ 2.04 µM)
MIC [2, 14]: 2 µg/mL (≈ 4.07 µM)
MIC [2, 15]: < 0.5 µg/mL
MIC [2, 16]: 2 µg/mL (≈ 4.07 µM)
MIC [2, 17]: 0.5 µg/mL (≈ 1.02 µM)
MIC [2, 18]: 2 µg/mL (≈ 4.07 µM)
MIC [2, 19]: 2 µg/mL (≈ 4.07 µM)
MIC [2, 20]: 4 µg/mL (≈ 8.14 µM)
MIC [2, 21]: 1 µg/mL (≈ 2.04 µM)
MIC [2, 22]: 2 µg/mL (≈ 4.07 µM)
MIC [2, 23]: 2 µg/mL (≈ 4.07 µM)
MIC [2, 24]: 2 µg/mL (≈ 4.07 µM)
MIC [2, 25]: 1 µg/mL (≈ 2.04 µM)
MIC [2, 26]: 8 µg/mL (≈ 16.3 µM)
MIC [2, 39]: 0.12 µg/mL (≈ 0.244 µM)
MIC [2, 40]: 0.12 µg/mL (≈ 0.244 µM)
MIC [2, 41]: 0.5 µg/mL (≈ 1.02 µM)
MIC [2, 42]: 1 µg/mL (≈ 2.04 µM)
MIC [2, 31]: 0.5 µg/mL (≈ 1.02 µM)
MIC [2, 32]: 1 µg/mL (≈ 2.04 µM)
MIC ([2]; culture S, table part marked b): 0.5 µg/mL (≈ 1.02 µM)
MIC ([2]; culture S, table part marked c): 2 µg/mL (≈ 4.07 µM)
SMILES: CC(=O)OCC1=C(C(=O)O)N2C(=O)C(NC(=O)CSc3cc(Cl)cc(Cl)c3)C2SC1 (stereo not drawn) [Example 3, 7-(3,5-Dichlorophenylthioacetamido)-cephalosporanic acid]
effectiveness in in vitro tests vs methicillin, cephalothin and cephaloridine [1]: substantially more effective than methicillin, cephalothin, and cephaloridine

Reference: patent publication US4175125A, “Method for treating methicillin resistant staphylococcus aureus” (Eli Lilly and Company, priority 1978, dated 1979)
